In paper PMC9516332 (Frontiers in Oncology, 2022):
Like-named read-outs stand apart in the source and are kept apart here.

How the values were obtained:
Assay in all cases: Kinase panel profiling at 1 µmol/L (MSA or IMAP), percentage inhibition
Format in all cases: biochemical
[1] = target: T1, panel of 255 wild-type kinases (Homo sapiens, UniProt P42681); conditions: read-out: %-inhibition at 1 µmol/L, TXK
T1 sequence (P42681 1-527): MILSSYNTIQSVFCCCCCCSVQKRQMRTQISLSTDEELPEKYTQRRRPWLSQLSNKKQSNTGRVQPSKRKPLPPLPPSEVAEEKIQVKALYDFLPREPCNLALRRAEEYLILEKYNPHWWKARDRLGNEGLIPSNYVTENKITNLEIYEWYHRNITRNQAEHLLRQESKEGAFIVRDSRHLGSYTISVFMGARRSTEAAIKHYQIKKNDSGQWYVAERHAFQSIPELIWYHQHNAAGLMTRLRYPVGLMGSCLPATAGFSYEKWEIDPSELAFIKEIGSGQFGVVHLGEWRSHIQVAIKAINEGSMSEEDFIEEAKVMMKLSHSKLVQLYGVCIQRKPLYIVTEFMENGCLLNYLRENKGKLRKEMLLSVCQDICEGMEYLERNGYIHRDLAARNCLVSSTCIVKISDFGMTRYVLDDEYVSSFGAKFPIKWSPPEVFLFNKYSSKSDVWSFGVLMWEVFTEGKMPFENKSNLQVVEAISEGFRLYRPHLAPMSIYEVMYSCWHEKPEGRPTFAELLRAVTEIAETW

[2] = target: panel of 255 wild-type kinases (Homo sapiens, UniProt P50750); conditions: read-out: %-inhibition CDK9/CycT1
[3] = target: T2, panel of 255 wild-type kinases (Homo sapiens, UniProt Q9NRA0); conditions: read-out: %-inhibition at 1 µmol/L, SPHK2
T2 sequence (Q9NRA0 1-654): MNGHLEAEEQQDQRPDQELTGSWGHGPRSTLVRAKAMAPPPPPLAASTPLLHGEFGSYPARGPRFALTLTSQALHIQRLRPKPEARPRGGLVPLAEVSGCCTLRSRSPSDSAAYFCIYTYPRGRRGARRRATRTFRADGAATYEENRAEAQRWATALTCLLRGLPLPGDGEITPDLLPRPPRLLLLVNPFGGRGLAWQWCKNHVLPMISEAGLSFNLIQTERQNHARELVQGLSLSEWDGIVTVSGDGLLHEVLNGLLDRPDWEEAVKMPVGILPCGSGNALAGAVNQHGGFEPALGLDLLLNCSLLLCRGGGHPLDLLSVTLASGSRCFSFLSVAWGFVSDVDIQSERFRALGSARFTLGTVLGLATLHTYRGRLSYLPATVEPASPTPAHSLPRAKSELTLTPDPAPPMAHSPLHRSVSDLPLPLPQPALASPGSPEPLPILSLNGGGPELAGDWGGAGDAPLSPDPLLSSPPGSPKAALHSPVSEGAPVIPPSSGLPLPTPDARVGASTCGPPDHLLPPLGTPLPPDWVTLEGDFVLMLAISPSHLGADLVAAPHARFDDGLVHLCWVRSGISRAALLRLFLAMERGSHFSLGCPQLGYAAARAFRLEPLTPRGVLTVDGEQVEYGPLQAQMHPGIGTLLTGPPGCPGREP

[4] = target: T3, panel of 255 wild-type kinases (Homo sapiens, UniProt Q8TDC3); conditions: read-out: %-inhibition BRSK1
T3 sequence (Q8TDC3 1-778): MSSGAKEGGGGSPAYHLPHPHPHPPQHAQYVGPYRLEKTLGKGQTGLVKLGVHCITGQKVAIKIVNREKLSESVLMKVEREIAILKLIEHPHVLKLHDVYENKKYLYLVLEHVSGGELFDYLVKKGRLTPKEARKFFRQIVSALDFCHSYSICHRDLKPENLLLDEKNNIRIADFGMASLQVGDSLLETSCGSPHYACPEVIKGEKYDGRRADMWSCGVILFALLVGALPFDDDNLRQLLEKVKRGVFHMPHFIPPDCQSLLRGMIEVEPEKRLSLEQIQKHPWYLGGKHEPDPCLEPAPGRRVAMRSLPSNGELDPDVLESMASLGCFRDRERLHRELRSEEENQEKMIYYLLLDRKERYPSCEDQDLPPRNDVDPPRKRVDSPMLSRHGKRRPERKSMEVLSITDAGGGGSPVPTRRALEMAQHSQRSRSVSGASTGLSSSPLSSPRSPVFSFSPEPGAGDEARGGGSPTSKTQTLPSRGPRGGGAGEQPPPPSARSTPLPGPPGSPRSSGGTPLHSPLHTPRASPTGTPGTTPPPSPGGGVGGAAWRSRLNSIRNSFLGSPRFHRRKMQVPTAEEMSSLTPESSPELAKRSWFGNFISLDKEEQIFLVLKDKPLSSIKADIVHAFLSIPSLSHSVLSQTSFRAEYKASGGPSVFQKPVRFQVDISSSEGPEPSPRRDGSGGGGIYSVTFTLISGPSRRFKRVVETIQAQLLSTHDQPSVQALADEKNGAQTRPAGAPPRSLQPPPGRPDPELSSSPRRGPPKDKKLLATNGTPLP

[5] = target: panel of 255 wild-type kinases (Homo sapiens, UniProt Q9HCP0); conditions: read-out: %-inhibition at 1 µmol/L, CK1γ1
[6] = target: panel of 255 wild-type kinases (Homo sapiens, UniProt P24941)
[7] = target: panel of 255 wild-type kinases (Homo sapiens, UniProt Q16512); conditions: read-out: %-inhibition at 1 µmol/L, PKN1
[8] = target: panel of 255 wild-type kinases (Homo sapiens, UniProt Q15119); conditions: read-out: %-inhibition at 1 µmol/L, PDHK2
[9] = target: panel of 255 wild-type kinases (Homo sapiens, UniProt P48729); conditions: read-out: %-inhibition at 1 µmol/L, CK1α
[10] = target: panel of 255 wild-type kinases (Homo sapiens, UniProt Q16288); conditions: read-out: %-inhibition at 1 µmol/L, TRKC
[11] = target: panel of 255 wild-type kinases (Homo sapiens, UniProt Q9P1W9); conditions: read-out: %-inhibition at 1 µmol/L, PIM2
[12] = kinase TXK, 1 µmol/L single concentration
[13] = CDK9/CycT1 kinase assay, 1 µmol/L single concentration
[14] = kinase SPHK2, 1 µmol/L single concentration
[15] = BRSK1 kinase assay, 1 µmol/L single concentration
[16] = kinase CK1γ1, 1 µmol/L single concentration
[17] = CDK2/CycA2 kinase assay, 1 µmol/L single concentration, read-out: %-inhibition CDK2/CycA2
[18] = CDK2/CycE1 kinase assay, 1 µmol/L single concentration, read-out: %-inhibition CDK2/CycE1
[19] = kinase PKN1, 1 µmol/L single concentration
[20] = kinase PDHK2, 1 µmol/L single concentration
[21] = kinase CK1α, 1 µmol/L single concentration
[22] = kinase TRKC, 1 µmol/L single concentration
[23] = kinase PIM2, 1 µmol/L single concentration

| Structure (SMILES) | inhibition at 1 µM [1, 12] | inhibition at 1 µM [2, 13] | inhibition at 1 µM [3, 14] | inhibition at 1 µM [4, 15] | inhibition at 1 µM [5, 16] | inhibition at 1 µM [6, 17] | inhibition at 1 µM [6, 18] | inhibition at 1 µM [7, 19] | inhibition at 1 µM [8, 20] | inhibition at 1 µM [9, 21] | inhibition at 1 µM [10, 22] | inhibition at 1 µM [11, 23] | further results |
| --- | --- | --- | --- | --- | --- | --- | --- | --- | --- | --- | --- | --- | --- |
| COC(=O)N[C@@H](C)CNc1nccc(-c2cn(C(C)C)nc2-c2cc(Cl)cc(NS(C)(=O)=O)c2F)n1 [encorafenib] | -3.43% | -1.11% | -12% | 1.38% | 26% | 5.57% | -9% | 6% | -2% | 36% | -0.54% | -1.43% |  |
| CCN1CCN(c2ccc(Nc3cc(N(C)C(=O)Nc4c(Cl)c(OC)cc(OC)c4Cl)ncn3)cc2)CC1 [infigratinib] | 4.32% | -0.383% | 2% | 1.2% | -0.947% | 11% | -33% | 13% | -3.38% | -7.38% | 6% | -7% |  |
| COc1ccc(CN2C3CC2CN(c2ccc(-c4cc(OCC(C)(C)O)cn5ncc(C#N)c45)cn2)C3)cn1 [selpercatinib] | 54% | 2.54% | -3.75% | 36% | 12% | 0.89% | -15% | 9% | -0.608% | 25% | 10% | -6% |  |
| Cn1cnc2c(F)c(Nc3ccc(Br)cc3Cl)c(C(=O)NOCCO)cc21 [selumetinib] | 3.19% | -2.15% | -4% | -1.75% | -2.69% | 1.44% | -55% | 10% | 2.47% | -3.42% | 10% | -3.45% |  |
| CCc1nc(C(N)=O)c(Nc2ccc(N3CCC(N4CCN(C)CC4)CC3)c(OC)c2)nc1NC1CCOCC1 [gilteritinib] | 79% | 32% | 9% | 23% | 11% | 27% | 17% | 65% | 5% | 13% | 100% | -1.37% |  |
| CCN1C(=O)N(c2c(F)c(OC)cc(OC)c2F)Cc2cnc3[nH]c(CN4CCOCC4)cc3c21 [pemigatinib] | -0.753% | 7% | -5.31% | 0.395% | -5.5% | 3.55% | 7% | 10% | 3.53% | 2.22% | -0.168% | -6% |  |
| Cn1cc(-c2cc3c(N4CCN(c5ncc([C@@](C)(N)c6ccc(F)cc6)cn5)CC4)ncnn3c2)cn1 [avapritinib] | 20% | 49% | 0.914% | 8.49% | 28% | -0.664% | -37% | 19% | 0.651% | 5% | 57% | -2.22% |  |
| CNC(=O)c1ccc(-c2cnc3ncc(Cc4ccc5ncccc5c4)n3n2)cc1F [capmatinib] |  |  |  |  |  |  |  |  |  |  |  |  | inhibition at 1 µM [1]: 2.34%; inhibition at 1 µM [2]: -0.278%; inhibition at 1 µM [3]: -2%; inhibition at 1 µM [4]: 0.113%; inhibition at 1 µM [5]: -1.88%; inhibition at 1 µM ([6]; read-out: %-inhibition CDK2/CycA2): 1.63%; inhibition at 1 µM ([6]; read-out: %-inhibition CDK2/CycE1): -47%; inhibition at 1 µM [7]: 16%; inhibition at 1 µM [8]: -2.62%; inhibition at 1 µM [9]: -5.42%; inhibition at 1 µM [10]: 19%; inhibition at 1 µM [11]: -4.65% |
| C[C@H](Nc1ncnc2nc[nH]c12)c1cc2cccc(Cl)c2c(=O)n1-c1ccccc1 [duvelisib] | -0.177% | -0.441% | 11% | 0.274% | -1.46% | -0.854% | -11% | 11% | 3.57% | -2% | 2% | -6.49% |  |
